This experiment concerns absolute ethanol-induced ulcer. The experiment can be described thus: absolute ethanol-induced ulcer model (anti-ulcerogenic activity). Type of experiment: in vivo, Wistar rats. Conditions: rats, oral, ranitidine 100 mg/kg, TAE 1000 mg/kg, 1 and 2 50 mg/kg; for score (lesion score): scoring system 0-5; for score (lesion score) / No. of ulcers / ulcer index: n = 6; for No. of ulcers / ulcer index: mean ± SD. As for the experimental part: Evaluation of the anti-ulcerogenic activity was carried out using absolute ethanol-induced ulcer model as described by Muthu et al. Int. J. Pharm. Pharm. Sci. 2013, 5, Suppl1, 269-272.
About 30 Wistar rats were used, they divided into 5 groups each of 6 rats. Group 1 received the vehicle and served as control group, group 2 received ranitidine (100 mg/kg) and served as standard group, groups 3 received the total alcohol extract of the plant under investigation at a dose of 1000 mg/kg. groups 4 and 5 received the isolated compounds 1 and 2 at dose 50 mg/kg respectively.
Rats of all groups were fasted for 24 h then all medications were administered orally. One hour after treatment, the animals received an oral dose of absolute ethanol (1 ml/200 g) and then sacrificed one hour later, by ether inhalation, the stomachs were rapidly removed, opened along their greater curvature and gently rinsed under running tap water.
Number of lesions in the glandular part of the stomach were measured under an illuminated magnifying microscope (10×). Long lesions were counted and their lengths were measured. Petechial lesions were counted, and then each five petechial lesions were taken as 1 mm of ulcer.
The lesion scores: the mucosal lesions were quantified by the scoring system (0-5) 0=no damage, 1=Local edema and inflammation without ulcers; 2=One ulcer without inflammation; 3=one to two ulcers with inflammation & lesion diameter <1 cm; 4=More than two ulcers with lesion diameter 1-2 cm; 5=Sever ulceration with lesion diameter >2 cm.
Ulcer index To calculate the ulcer index (mm), the sum of the total length of long ulcers and petechial lesions in each group of rats was divided by its number. The curative ratio was determined according to the formula: % Protection of control ulcer=Control UI−Test UI/Control UI×100

Values joined by “and” are separate entries in the source; they are usually repeats but may differ in a detail not shown here. Equal values may be shown once.

As for `CCCCCCCCCCCCCCCCCCCCCCCC(=O)O` [Compound 1, tetracosanoic acid], the “score (lesion score)” value came to 1, the “% protection of control ulcer” value is recorded as 80%, the No. of ulcers is 2 ± 2.74 and the ulcer index worked out at 2.6 ± 3.58 mm.

As to `CCCCOC(=O)C(O)CCC(=O)O` (stereo not shown) [Compound 2, 4-hydroxy-5-n-butoxy-5-oxopentanoic acid], the “score (lesion score)” value came to 2; the “% protection of control ulcer” value was 55.5% and 55.3%; the No. of ulcers turned out to be 3.6± 2.97; the ulcer index is on record as 5.8 ± 3.42 mm.

Regarding `CNC(=C[N+](=O)[O-])NCCSCc1ccc(CN(C)C)o1` [Ranitidine, ranitidine, reference compound], the “score (lesion score)” value stood at 2.2, the “% protection of control ulcer” value came to 46.2%, the No. of ulcers was 7.2 ± 0.84 and the ulcer index is 7 ± 1.58 mm. Besides, under “listed as ranitidine”, the “% protection of control ulcer” value was 46.2% and 44.6%.

The values above are taken from patent US11147848B2, “Extracts and isolated compounds from Cakile arabica for treatment of ulcer” (KING SAUD UNIVERSITY, priority 2013, dated 2021).
